Measured values as given in patent US12569477B2, “Compositions for synergistically enhancing mitochondrial function” (MITOCHOLINE LTD, priority 2017, dated 2026).

Tests used:
[1] = test system: whole-brain ATP levels; conditions: for ATP, % (ATP levels in the brain at 15th min after ischemia onset, in percent to baseline): male rats, 10 mg/kg for 7 days, global ischemia, mean±SEM, baseline 100%, saline 35.3 ± 3.0
Method: Then global ischemia was induced in rats by cardiac arrest under anesthesia and whole-brain ATP levels were measured by 31P NMR in vivo for 15 min. Results are presented in Table 3 as mean±SEM ATP levels in the brain at 15th min after ischemia onset, in percent to baseline (accepted for 100%).

[2] = test system: cortical neurons and glial cells; assay: ATP levels in mixed primary cultures of cortical neurons and glial cells (AT1.03 probe, confocal microscopy); conditions: same treatments as ATP, control 0
Method: Mixed primary cultures of cortical neurons and glial cells were prepared from mouse pups 1-3 days postpartum, as described by Vaarmann A. et al., 2010 (Cell Calcium 2010, 48(2-3):176-82). For measurements of ATP, the cells at 14-21 DIV were transfected for 24 h with the ATP sensing probe AT1.03 (as described in Imamura H et al., PNAS 2009, 106(37):15651-15656) using Lipofectamine 2000 according to the manufacturer's instructions. […] Then, ATP levels in cells were measured using confocal microscopy. […] All data presented were obtained from at least 5 coverslips and 2-3 different cell preparations.
Mean of ATP levels in non-treated cells (control) was accepted for 100%. Effects of the treatments on ATP levels in cells (ΔATP) were calculated by formula: ΔATP=ATPtreat−ATPcontrol, wherein ATPtreat is ATP level in treated cells and ATPcontrol is ATP levels in control cells.

[3] = test system: primary neurons and astrocytes; assay: Mitochondrial NADH autofluorescence in primary neurons and astrocytes; assay type: cell-based, mouse; conditions: for NADH autofluorescence, % of control: after 20 min of incubation; for NADH autofluorescence, % of control / Initial change of mitochondrial NADH level on application: DiSU 50 μM, NAM 20 μM, sodium succinate 50 μM
Method: Mixed cultures of cortical neurons and glial cells were prepared as described, from mouse pups 1-3 days postpartum. Neurons were easily distinguishable from glia: they appeared phase bright, had smooth rounded somata and distinct processes, and positioned just above the focal plane of the glial layer. Cells were used at 14-21 DIV. Experiments were conducted in HBSS solution at the 37° C.
To estimate the mitochondrial pool of NADH, maximal activation of mitochondrial respiration is induced by uncoupler FCCP (mitochondrial NADH is taken 0) followed by inhibition of respiration by NaCN (NADH is maximal due to inhibition of consumption). This set up provides evaluation of several characteristics: the rate of NADH production in TCA cycle (recovery of the NADH signal after NaCN), total mitochondrial pool and redox index.

[4] = test system: primary myotubes; assay: Mitochondrial membrane potential (TMRM) in primary myotubes; assay type: cell-based, rat; conditions: DiSU 50 μM, NAM 20 μM, or both (2:1:0.4); n=67 myotubes
Method: (§1) Primary Skeletal Muscle Cell culture. Primary myotube cells were obtained from postnatal day 0-2 (P0-P2) rat pups which were sacrificed by decapitation. Briefly, the rats were immersed in 70% ethanol and the hind-limbs removed under a dissection microscope, in dissection solution containing Dulbecco's Phosphate Buffered Saline (PBS) with penicillin streptomycin (5000 units/ml) and Amphotericin B (2.5 mg/L). The tissues were then digested in 0.2% collagenase solution at 37° C. for 30-40 minutes.
The reaction was stopped by adding 2-3 ml fetal bovine serum (FBS), and the tissue suspension was centrifuged at 2010 rpm (700 g) for 10 minutes. The cell pellet was resuspended in pre-warmed growth medium, Dulbecco's modified Eagle's medium (DMEM), containing 20% FBS, 100 i.u./ml penicillin and 200 i.u./ml streptomycin], and plated on 22 mm coverslips that were pre-coated with 0.2% gelatin for 1 hour at 37° C. […]
Tetramethyl rhodamine methyl ester (TMRM) was used to study the changes of the mitochondrial membrane potential (Δψm). […] TMRM fluorescence was excited at 543 nm (HeNe laser), and emission was measured at >560 nm. […] Therefore, the changes in potential are reflected by changes in fluorescence intensity within the mitochondria which is measured after thresholding out the background signal from the cytosol to give a mean value per pixel within the mitochondrial population of a cell. […]

[5] = test system: primary myotubes; assay: Autophagy/mitophagy: co-localization of mitochondria and lysosomes in primary myotubes; assay type: cell-based, rat; conditions: 50 μM DiSU+20 μM NAM or single components in corresponding molar amounts
Source text: The upper panels show confocal images of cells loaded with two dyes MitoTracker Green (labeling mitochondria) and LysoTracker Red (labeling lysosomes); the lower panel: quotative evaluation of co-localization of mitochondria and lysosomes in cells. […] Values are presented as mean±SD. **P<0.001. Independent experiments (n) are indicated as dots in the scatter plot.

[6] = test system: primary myotubes; assay: Mitochondrial NADH redox index and NADH pool in myotube cultures; assay type: cell-based, rat; conditions: blend 1: 100 μM DiSU+40 μM NAM; blend 2: 50 μM DiSU+20 μM NAM; choline (100, succinate (50 μM), NAM (50 μM)); FIG. 1B
Method: as §1
The reaction was stopped by adding 2-3 ml fetal bovine serum (FBS), and the tissue suspension was centrifuged at 2010 rpm (700 g) for 10 minutes. The cell pellet was resuspended in pre-warmed growth medium, Dulbecco's modified Eagle's medium (DMEM), containing 20% FBS, 100 i.u./ml penicillin and 200 i.u./ml streptomycin], and plated on 22 mm coverslips that were pre-coated with 0.2% gelatin for 1 hour at 37° C. Cells were then cultured in a humidified CO2 incubator (5% CO2 in air) at 37° C. After 2 or 3 days, the medium was changed to a low-serum medium (DMEM containing 10% FBS without antibiotics), and was subsequently renewed every 3 or 4 days. All experiments were performed in vitro between days 2 and 11 in culture when spindle-shaped myoblasts had proliferated and aligned themselves for fusion (˜70% confluency).

Row | Molecule | ATP, % (ATP levels in the brain at 15th min after ischemia onset, in percent to baseline) [1] [%] | Increase in TMRM fluorescence (mitochondrial membrane potential) compared to control [4] | Autophagy (co-localization of mitochondria and lysosomes) [5] | NADH autofluorescence, % of control [3] | Initial change of mitochondrial NADH level on application [3] | other results
1 | O=C([O-])CCC(=O)[O-].[K+].[K+] [Dipotassium succinate, dipotassium succinate] | 40.9 ± 9.0 |  |  |  |  | 
2 | O=C(O)c1cccnc1 [Nicotinic acid, nicotinic acid] |  |  |  |  |  | ΔATP, % (ATPtreat−ATPcontrol) [2]: +1%
3 | NC(=O)c1cccnc1 [NAM, nicotinamide] |  | increase | not |  |  | Mitochondrial NADH pool, % of control ([3]; NAM 20 μM alone, short term (15-20 min)): 116±8 % of control
4 | C[N+](C)(C)CCO.[Cl-] [Choline chloride, choline chloride] | 36.8 ± 5.0 |  |  |  |  | 
5 | O=C([O-])CCC(=O)[O-].[Na+].[Na+] [Sodium succinate, sodium succinate] | 34.3 ± 2.4 |  | not | not detected a noticeable increase | fast and significant decrease | NADH redox index [6]: did not induce significant changes
6 | choline succinate salt (2:1) [DiSU] | 55.5 ± 4.8 | increase | significantly increase | 123±6 % of control | only slight initial decrease | ATP levels in the brain under normoxia ([1]; rats, normoxia): did not affect
